# BindingDB's records for doi:10.1016/j.bioorg.2014.02.001 (University of Delhi, 2014)
# Target: Proto-oncogene tyrosine-protein kinase Src (c-Src)
# Test: The kinase reaction was initiated with the incubation of the 2.5 µL of the reaction cocktail (0.7 nM of His6-Src kinase domain in kinase buffer) with 2.5 µL of prediluted compounds (dissolved in 10% DMSO, 4X target concentration) for 10 min at room temperature. The reaction cocktail contained 200 mM HEPES (pH 7.5), 16 mM MgC
# Details: not given
row,SMILES,IC50
1,COc1ccc(O)c(C(=O)c2ccc(=O)n(C3CCCCC3)c2)c1 [1-Cyclohexyl-5-(2-hydroxy-5-methoxybenzoyl)pyridin-2 (1H)-one (42)],24.8 µM
2,O=C(c1ccc(=O)n(C2CCCCC2)c1)c1ccccc1O [1-Cyclohexyl-5-(2-hydroxybenzoyl)pyridin-2(1H)-one (30)],25.4 µM
3,CCCCCCn1cc(C(=O)c2ccc(OC)cc2O)ccc1=O [1-Hexyl-5-(2-hydroxy-4-methoxybenzoyl)pyridin-2(1H)-one (34)],34.1 µM
4,CCCCCCn1cc(C(=O)c2cc(OC)ccc2O)ccc1=O [1-Hexyl-5-(2-hydroxy-5-methoxybenzoyl)pyridin-2(1H)-one (41)],23.5 µM
5,CCCCCCn1cc(C(=O)c2ccccc2O)ccc1=O [1-Hexyl-5-(2-hydroxybenzoyl)pyridin-2(1H)-one (28)],28.1 µM
6,COc1ccc(C(=O)c2ccc(=O)n(CCN(C)C)c2)c(O)c1 [1-[2-(Dimethylamino)ethyl]-5-(2-hydroxy-4-methoxybenzoyl) pyridin-2(1H)-one (36)],12.5 µM
7,CN(C)CCn1cc(C(=O)c2ccccc2O)ccc1=O [1-[2-(Dimethylamino)ethyl]-5-(2-hydroxybenzoyl)pyridin-2(1H)-one (31)],28.2 µM
8,"CCCCCCn1cc(C(=O)c2ccc(O)cc2O)ccc1=O [5-(2,4-Dihydroxybenzoyl)-1-hexylpyridin-2(1H)-one (32)]",27.7 µM
9,"CCCCCCn1cc(C(=O)c2cc(O)ccc2O)ccc1=O [5-(2,5-Dihydroxybenzoyl)-1-hexylpyridin-2(1H)-one (39)]",22.1 µM
10,"CC(C)n1cc(C(=O)c2cc(O)ccc2O)ccc1=O [5-(2,5-Dihydroxybenzoyl)-1-isopropylpyridin-2(1H)-one (40)]",26.1 µM
11,COc1ccc(C(=O)c2ccc(=O)n(CCO)c2)c(O)c1 [5-(2-Hydroxy-4-methoxybenzoyl)-1-(2-hydroxyethyl)pyridin-2(1H)-one (38)],19.9 µM
12,COc1ccc(C(=O)c2ccc(=O)n(C(C)C)c2)c(O)c1 [5-(2-Hydroxy-4-methoxybenzoyl)-1-isopropylpyridin-2(1H)-one (35)],47 µM
13,CC(C)n1cc(C(=O)c2ccccc2O)ccc1=O [5-(2-Hydroxybenzoyl)-1-isopropylpyridin-2(1H)-one (29)],21.8 µM
14,O=c1ccc(/C(=N\C2CCCCC2)c2ccccc2O)cn1C1CCCCC1 [(E)-1-Cyclohexyl-5-[(cyclohexylimino)(2-hydroxyphenyl)methyl]pyridin-2(1H)-one (45)],20.1 µM
15,CC(C)/N=C(\c1ccc(=O)n(C(C)C)c1)c1ccccc1O [(E)-5-[(2-Hydroxyphenyl)(isopropylimino)methyl]-1-isopropylpyridin-2(1H)-one (44)],37.9 µM
16,"CC(C)(C)OC(=O)NCCn1cc(C(=O)c2ccc(O)cc2O)ccc1=O [t-Butyl [2-{5-(2,4-dihydroxybenzoyl)-2-oxopyridin-1(2H)-yl}ethyl]carbamate (33)]",57.8 µM
17,COc1ccc(C(=O)c2ccc(=O)n(CCNC(=O)OC(C)(C)C)c2)c(O)c1 [t-Butyl [2-{5-(2-hydroxy-4-methoxybenzoyl)-2-oxopyridin-1(2H)-yl}ethyl]carbamate (37)],27.6 µM
18,COc1ccc(O)c(C(=O)c2ccc(=O)n(CCNC(=O)OC(C)(C)C)c2)c1 [t-Butyl [2-{5-(2-hydroxy-5-methoxybenzoyl)-2-oxopyridin-1(2H)-yl}ethyl]carbamate (43)],21.9 µM

# Target: T1, 3-phosphoinositide-dependent protein kinase 1 (Homo sapiens, UniProt O15530)
# T1 sequence (O15530 whole entry): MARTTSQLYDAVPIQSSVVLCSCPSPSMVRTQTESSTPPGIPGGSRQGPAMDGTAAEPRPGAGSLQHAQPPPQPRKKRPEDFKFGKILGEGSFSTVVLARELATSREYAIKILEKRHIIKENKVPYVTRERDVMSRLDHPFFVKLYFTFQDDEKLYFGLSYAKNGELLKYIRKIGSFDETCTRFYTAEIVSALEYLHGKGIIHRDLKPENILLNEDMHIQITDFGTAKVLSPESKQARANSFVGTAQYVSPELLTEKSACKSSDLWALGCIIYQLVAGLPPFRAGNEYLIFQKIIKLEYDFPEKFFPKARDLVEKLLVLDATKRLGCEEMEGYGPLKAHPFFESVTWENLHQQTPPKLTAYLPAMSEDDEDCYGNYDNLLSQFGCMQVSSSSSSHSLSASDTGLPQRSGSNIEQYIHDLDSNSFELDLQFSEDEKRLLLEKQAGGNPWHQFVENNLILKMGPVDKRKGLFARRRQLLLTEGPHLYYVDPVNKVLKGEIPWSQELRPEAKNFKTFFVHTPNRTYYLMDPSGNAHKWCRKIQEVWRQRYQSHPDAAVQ
# Test: EGFR, MAPK and PDK Inhibitory Acitivity Assay
# Details: pH 7
# Description: (§1) EGFR was incubated with 8 mM MOPS (pH 7.0), 0.2 mM EDTA, 10 mM MnCl2, 0.1 mg/mL poly(Glu, Tyr) 4:1. MAPK1 was incubated with 25 mM Tris (pH 7.5), 0.02 mM EGTA, 250 µM substrate peptide (MAPK1-peptide), whereas PDK1 was incubated with 50 mM Tris (pH 7.5), 100 µM […] (PDKtide). The incubation was followed by the addition of 10 mM magnesium acetate and gamma-P33-ATP to each kinase. The kinase reactions were initiated with the addition of Mg:ATP mixture and stopped after 40 min of incubation with the addition of 3% phosphoric acid solution.
row,SMILES,IC50
1,COc1ccc(C(=O)c2ccc(=O)n(CCN(C)C)c2)c(O)c1 [1-[2-(Dimethylamino)ethyl]-5-(2-hydroxy-4-methoxybenzoyl) pyridin-2(1H)-one (36)],> 300 µM

# Target: T2, Epidermal growth factor receptor [1-973] (Homo sapiens, UniProt P00533)
# T2 construct: 1-973
# Test: EGFR, MAPK and PDK Inhibitory Acitivity Assay
# Details: pH 7
# Description: as §1
# T2 sequence (P00533 1-973): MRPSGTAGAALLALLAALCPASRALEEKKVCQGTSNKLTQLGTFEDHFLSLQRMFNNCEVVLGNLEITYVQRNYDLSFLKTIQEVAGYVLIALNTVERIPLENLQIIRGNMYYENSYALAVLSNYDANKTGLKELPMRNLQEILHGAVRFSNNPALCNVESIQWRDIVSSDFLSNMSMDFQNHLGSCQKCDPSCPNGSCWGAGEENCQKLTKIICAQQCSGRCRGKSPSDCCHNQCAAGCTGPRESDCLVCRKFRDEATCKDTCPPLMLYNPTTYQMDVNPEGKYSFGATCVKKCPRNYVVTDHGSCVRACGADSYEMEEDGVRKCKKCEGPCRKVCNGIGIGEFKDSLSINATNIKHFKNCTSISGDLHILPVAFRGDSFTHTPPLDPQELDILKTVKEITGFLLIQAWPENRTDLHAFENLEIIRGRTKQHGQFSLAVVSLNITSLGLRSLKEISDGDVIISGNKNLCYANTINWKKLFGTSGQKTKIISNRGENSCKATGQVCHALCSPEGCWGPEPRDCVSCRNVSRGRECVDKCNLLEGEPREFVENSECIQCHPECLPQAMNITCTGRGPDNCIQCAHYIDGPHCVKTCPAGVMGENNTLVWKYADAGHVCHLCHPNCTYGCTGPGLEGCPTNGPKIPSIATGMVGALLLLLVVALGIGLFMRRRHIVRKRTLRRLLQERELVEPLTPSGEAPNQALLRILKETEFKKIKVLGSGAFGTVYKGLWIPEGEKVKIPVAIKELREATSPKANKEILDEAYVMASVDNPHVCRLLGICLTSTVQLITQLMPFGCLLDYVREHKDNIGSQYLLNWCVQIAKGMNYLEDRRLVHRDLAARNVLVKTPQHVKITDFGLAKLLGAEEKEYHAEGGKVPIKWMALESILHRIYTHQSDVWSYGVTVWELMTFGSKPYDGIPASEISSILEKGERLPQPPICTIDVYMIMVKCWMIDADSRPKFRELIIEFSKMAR
row,SMILES,IC50
1,COc1ccc(C(=O)c2ccc(=O)n(CCN(C)C)c2)c(O)c1 [1-[2-(Dimethylamino)ethyl]-5-(2-hydroxy-4-methoxybenzoyl) pyridin-2(1H)-one (36)],> 300 µM

# Target: Mitogen-activated protein kinase 1 (Homo sapiens, UniProt P28482)
# Test: EGFR, MAPK and PDK Inhibitory Acitivity Assay
# Details: pH 7
# Description: as §1
# Mitogen-activated protein kinase 1, sequence (P28482 whole entry): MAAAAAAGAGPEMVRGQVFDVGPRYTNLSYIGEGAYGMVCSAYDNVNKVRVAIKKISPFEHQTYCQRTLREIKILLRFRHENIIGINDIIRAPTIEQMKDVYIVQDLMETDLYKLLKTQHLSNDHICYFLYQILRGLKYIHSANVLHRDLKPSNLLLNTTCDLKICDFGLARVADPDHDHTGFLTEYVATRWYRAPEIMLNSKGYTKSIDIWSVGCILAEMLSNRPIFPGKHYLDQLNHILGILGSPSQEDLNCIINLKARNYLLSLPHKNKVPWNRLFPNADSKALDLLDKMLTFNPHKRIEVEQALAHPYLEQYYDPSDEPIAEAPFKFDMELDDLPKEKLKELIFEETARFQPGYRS
row,SMILES,IC50
1,COc1ccc(C(=O)c2ccc(=O)n(CCN(C)C)c2)c(O)c1 [1-[2-(Dimethylamino)ethyl]-5-(2-hydroxy-4-methoxybenzoyl) pyridin-2(1H)-one (36)],> 300 µM
